Assay results taken from patent publication US12351555B2, “Process for synthesizing apremilast” (AMGEN INC., priority 2021, dated 2025).

Test: Moisture sorption analysis (DVS) of crystal Form B of apremilast
Format: physicochemical
Source text: FIG. 3B depicts a representative DVS plot of crystal Form B of apremilast.
The crystalline apremilast formed in the disclosed processes can be any crystalline form. Various crystalline apremilast forms are described in detail in PCT Publication No. WO 2009/120167, the disclosure of which is incorporated by reference in its entirety. In various embodiments, the crystalline apremilast formed by the processes disclosed herein can be Form A, Form B, or Form F. In some cases, the crystalline apremilast is Form B. Form B may be characterized by X-ray powder diffraction analysis. In certain embodiments, Form B is characterized by XRPD peaks located at one, two, three, four, five, six, seven, eight, nine, ten, eleven or twelve of the following approximate positions: 10.1, 12.4, 13.5, 15.7, 16.3, 18.1, 20.7, 22.5, 24.7, 26.2, 26.9, 29.1 degrees 2θ. […] In certain embodiments, Form B may be characterized by thermal analysis. In certain embodiments, Form B is characterized by a DSC plot comprising an endothermic event with an onset temperature of about 154° C. In certain embodiments, Form B is characterized by a TGA plot comprising a mass loss of less than about 1%, e.g., about 0.25%, of the total mass of the sample upon heating from about 25° C. to about 140° C. […] In certain embodiments, Form B is anhydrous. In certain embodiments, Form B is unsolvated. In certain embodiments, Form B may be characterized by moisture sorption analysis. […] In certain embodiments, mass gained upon adsorption is lost when the RH is decreased back to about 0% RH.

stability with respect to humidity: stable with respect to humidity
XRPD pattern following the adsorption/desorption analysis (after adsorption/desorption analysis): substantially unchanged
hygroscopicity (moisture sorption analysis): substantially nonhygroscopic
SMILES: CCOc1cc(C(CS(C)(=O)=O)N2C(=O)c3cccc(NC(C)=O)c3C2=O)ccc1OC (single isomer, unassigned; (+)) [Form B, (+)-2-[1-(3-ethoxy-4-methoxyphenyl)-2-methylsulfonylethyl]-4-acetylaminoisoindoline-1,3-dione]
